Assay results from US8293729B2 (Boehringer Ingelheim International GmbH, priority 2009, dated 2012).

Each molecule was assayed against T1, human GPR119 receptor (Homo sapiens, UniProt Q8TDV5, S329A/T327A) (assay: cAMP assay (LANCE cAMP-384) in HEK293 cells stably expressing mutant human GPR119 receptor). Conditions: HEK293, 20 min; 10 μM; the 28th table; read-out: stimulation in % at 10 μM.
T1 construct: N-terminal leader […]; expressed in transfected cells
T1 sequence (Q8TDV5 with tags, fused parts or gaps T327A/S329A): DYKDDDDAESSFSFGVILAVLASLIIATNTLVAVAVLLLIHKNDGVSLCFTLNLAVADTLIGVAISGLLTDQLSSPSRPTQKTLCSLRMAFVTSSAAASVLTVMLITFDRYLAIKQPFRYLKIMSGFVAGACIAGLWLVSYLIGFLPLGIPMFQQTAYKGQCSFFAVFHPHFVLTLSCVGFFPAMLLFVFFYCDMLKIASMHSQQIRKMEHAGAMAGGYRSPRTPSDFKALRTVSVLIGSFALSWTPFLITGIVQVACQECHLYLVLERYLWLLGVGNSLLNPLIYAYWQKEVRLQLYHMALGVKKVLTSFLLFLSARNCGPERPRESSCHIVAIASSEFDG
Type: cell-based
In short: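 HEK293 cells stably expressing human GPR119 (T327A/S329A, modified N-terminus), 1000 cells/well, exposed to compound for 20 min at 37° C. cAMP quantified by LANCE TR-FRET against a standard curve; EC50 from 12 points, 30 μM to 100 pM, or % stimulation at 10 μM.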

Row | SMILES | activation at 10 µM
1 | CC(C)OC(=O)N1CCC(ON=C2CCN(c3ncc(N4CCCC4=O)cn3)CC2)CC1 [Example 51-6] | 98%

Same assay, conditions: HEK293, 20 min; at 10 μM; printed in EC50 column of the 36th table; read-out: stimulation in % at 10 μM

Row | SMILES | activation at 10 µM
2 | CS(=O)(=O)c1ccc(N2CCC(=NOC3CCN(Cc4nccs4)CC3)CC2)c(F)c1 [Example 66-6] | 63%
3 | CCc1ncc(CN2CCC(ON=C3CCN(c4ccc(S(C)(=O)=O)cc4F)CC3)CC2)cn1 [Example 66-49] | 75%

Same assay, conditions: cAMP accumulation, HEK293 cells stably expressing mutant human GPR119; read-out: EC50

Row | SMILES | EC50
4 | Cc1cc(C=O)ccc1N1CCC(=NOC2CCN(C(=O)OC(C)C)CC2)CC1 [Example 2-29] | 3170 nM
5 | CC(C)OC(=O)N1CCC(ON=C2CCN(c3cc(F)c(-c4cccnc4)cc3F)CC2)CC1 [Example 27-4] | 182 nM
6 | CC(C)OC(=O)N1CCC(ON=C2CCN(c3cc(F)c(-c4nccn4C)cc3F)CC2)CC1 [Example 27-16] | 5550 nM
7 | CC(C)OC(=O)N1CCC(ON=C2CCN(c3cc(F)c(Cn4ccnn4)cc3F)CC2)CC1 [Example 14-12] | 32 nM
8 | CC(C)OC(=O)N1CCC(ON=C2CCN(c3cc(F)c(Cn4cccn4)cc3F)CC2)CC1 [Example 14-1, 4-{1[2,5-Difluoro-4-(pyrazol-1-ylmethyl)-phenyl]-piperidin-4-ylideneaminooxy}-piperidine-1-carboxylic acid isopropyl ester] | 38 nM
9 | CC(C)OC(=O)N1CCC(ON=C2CCN(c3ncc(F)cc3F)CC2)CC1 [Example 2-69] | 1020 nM
10 | CC(C)OC(=O)N1CCC(ON=C2CCN(c3cc(F)c(Cn4cnc5ccncc54)cc3F)CC2)CC1 [Example 14-8] | 763 nM
11 | CC(C)OC(=O)N1CCC(ON=C2CCN(c3cc(F)c(-c4ccncc4)cc3F)CC2)CC1 [Example 27-5] | 378 nM
12 | CC(C)OC(=O)N1CCC(ON=C2CCN(c3ccc(S(N)(=O)=O)cc3F)CC2)CC1 [Example 2-36] | 130 nM
13 | CC(C)OC(=O)N1CCC(ON=C2CCN(c3cc(F)ccc3C=O)CC2)CC1 [Example 2-19] | 345 nM
14 | CC(C)OC(=O)N1CCC(ON=C2CCN(c3cc(F)c(-c4cnc(N)nc4)cc3F)CC2)CC1 [Example 27-15] | 516 nM
15 | CC(C)OC(=O)N1CCC(ON=C2CCN(c3cc(F)c(CN(C)CCCC(=O)O)cc3F)CC2)CC1 [Example 5-10] | > 10000 nM
16 | Cc1ccc(-c2cc(F)c(N3CCC(=NOC4CCN(C(=O)OC(C)C)CC4)CC3)cc2F)s1 [Example 27-23] | 274 nM
17 | CC(C)OC(=O)N1CCC(ON=C2CCN(c3ncc4c(n3)CCN(S(C)(=O)=O)C4)CC2)CC1 [Example 59b, 4-[1-(6-Methanesulfonyl-5,6,7,8-tetrahydro-pyrido[4,3-d]pyrimidin-2-yl)-piperidin-4-ylideneaminooxy]-piperidine-1-carboxylic acid isopropyl ester] | 328 nM
18 | CC(C)OC(=O)N1CCC(ON=C2CCN(c3nc(Cl)ccc3CO)CC2)CC1 [Example 2-27] | > 10000 nM
19 | CC(C)OC(=O)N1CCC(ON=C2CCN(c3ccnc(Cl)n3)CC2)CC1 [Example 2-46] | 1880 nM
20 | CCOC(=O)Nc1cc(F)c(N2CCC(=NOC3CCN(C(=O)OC(C)C)CC3)CC2)cc1F [Example 35-2] | 18 nM
21 | CC(C)OC(=O)N1CCC(ON=C2CCN(c3cc(F)c(-c4ncc[nH]4)cc3F)CC2)CC1 [Example 27-22] | 54 nM
22 | CC(C)OC(=O)N1CCC(ON=C2CCN(c3cc(F)c(CNS(=O)(=O)C(C)C)cc3F)CC2)CC1 [Example 16-5] | 142 nM
23 | CC(C)OC(=O)N1CCC(ON=C2CCN(c3cc(F)c(CSCC(=O)O)cc3F)CC2)CC1 [Example 13-2] | 2410 nM
24 | CC(C)OC(=O)NCc1cc(F)c(N2CCC(=NOC3CCN(C(=O)OC(C)C)CC3)CC2)cc1F [Example 16-7] | 134 nM
25 | CC(C)OC(=O)N1CCC(ON=C2CCN(c3cc(F)c(-c4ccoc4)cc3F)CC2)CC1 [Example 27-3] | 591 nM
26 | CC(C)OC(=O)N1CCC(ON=C2CCN(c3cc(F)c(Cn4ccnc4)cc3F)CC2)CC1 [Example 14-4] | 268 nM

Same assay, conditions: the 19th table; unit inferred; read-out: EC 50

Row | SMILES | EC50
27 | CCc1cnc(N2CCC(ON=C3CCN(c4cc(F)c(C(=O)NCC5CCCN5)cc4F)CC3)CC2)nc1 (centres unmarked) [Example 29-121] | 139 nM
28 | CCc1cnc(N2CCC(ON=C3CCN(c4cc(F)c(C(=O)NCC[C@H](N)C(=O)O)cc4F)CC3)CC2)nc1 [Example 29-117] | 745 nM
29 | CCc1cnc(N2CCC(ON=C3CCN(c4cc(F)c(C(=O)NCC5CCCN5C)cc4F)CC3)CC2)nc1 (centres unmarked) [Example 29-137] | 212 nM
30 | CCc1cnc(N2CCC(ON=C3CCN(c4cc(F)c(C(=O)N5CCC[C@H]5CNC)cc4F)CC3)CC2)nc1 [Example 29-134] | 437 nM

Same assay, conditions: the 30th table; read-out: EC50

Row | SMILES | EC50
31 | Cc1cnn(Cc2cnc(N3CCC(=NOC4CCN(C(=O)OC(C)C)CC4)CC3)c(F)c2)c1 [Example 54-1, 4-[3′-Fluoro-5′-(4-methyl-pyrazol-1-ylmethyl)-2,3,5,6-tetrahydro-[1,2]bipyridinyl-4-ylideneaminooxy]-piperidine-1-carboxylic acid isopropyl ester] | 445 nM

Same assay, conditions: the 31st table; read-out: EC50

Row | SMILES | EC50
32 | CC(C)OC(=O)N1CCC(ON=C2CCCN(c3ccc(S(C)(=O)=O)cc3F)C2)CC1 (mixture of isomers) [Example 61-1, 4-[1-(2-Fluoro-4-methanesulfonyl-phenyl)-piperidin-(3Z)-ylideneaminooxy]-piperidine-1-carboxylic acid isopropyl ester] | > 10000 nM

Same assay, conditions: the 32nd table; read-out: EC50

Row | SMILES | EC50
33 | CS(=O)(=O)c1ccc(N2CCC(=NOC3CCN(c4ccc(Cl)cn4)CC3)CC2)c(F)c1 [Example 63-24] | 977 nM

Same assay, conditions: the 33rd table; read-out: EC50

Row | SMILES | EC50
34 | CC(C)[C@@H](N)COC(=O)N1CCC(ON=C2CCN(c3ccc(S(C)(=O)=O)cc3F)CC2)CC1 [Example 64-44] | > 10000 nM
35 | CN1CCCC(OC(=O)N2CCC(ON=C3CCN(c4ccc(S(C)(=O)=O)cc4F)CC3)CC2)C1 (centres unmarked) [Example 64-19] | > 10000 nM
36 | CS(=O)(=O)c1ccc(N2CCC(=NOC3CCN(C(=O)OCCC4CCCCC4)CC3)CC2)c(F)c1 [Example 64-42] | 350 nM
37 | CCCCOC(=O)N1CCC(ON=C2CCN(c3ccc(S(C)(=O)=O)cc3F)CC2)CC1 [Example 64-45] | 54 nM
38 | CC(C)(C)CCOC(=O)N1CCC(ON=C2CCN(c3ccc(S(C)(=O)=O)cc3F)CC2)CC1 [Example 64-41] | 202 nM

Same assay, conditions: the 34th table, compounds 65-1 to 65-24; read-out: EC50

Row | SMILES | EC50
39 | CS(=O)(=O)c1ccc(N2CCC(=NOC3CCN(C(=O)c4ccc(F)cc4)CC3)CC2)c(F)c1 [Example 65-22] | 132 nM
40 | CS(=O)(=O)c1ccc(N2CCC(=NOC3CCN(CC(=O)OCc4ccccc4)CC3)CC2)c(F)c1 [Example 65-5] | 3380 nM
41 | CS(=O)(=O)c1ccc(N2CCC(=NOC3CCN(CC(=O)Oc4ccccc4)CC3)CC2)c(F)c1 [Example 65-6] | 854 nM

Same assay, conditions: the 36th table, compounds 66-1 to 66-51; read-out: EC50

Row | SMILES | EC50
42 | Cn1ccnc1CN1CCC(ON=C2CCN(c3ccc(S(C)(=O)=O)cc3F)CC2)CC1 [Example 66-12] | > 10000 nM
43 | CS(=O)(=O)c1ccc(N2CCC(=NOC3CCN(Cc4ccccn4)CC3)CC2)c(F)c1 [Example 66-3] | > 10000 nM
44 | CS(=O)(=O)c1ccc(N2CCC(=NOC3CCN(Cc4cscn4)CC3)CC2)c(F)c1 [Example 66-11] | > 10000 nM
45 | Cc1nc[nH]c1CN1CCC(ON=C2CCN(c3ccc(S(C)(=O)=O)cc3F)CC2)CC1 [Example 66-9] | > 10000 nM

Same assay, conditions: the 37th table, compounds 66-52 to 66-64; read-out: EC50

Row | SMILES | EC50
46 | C/C=C/c1ccc(CN2CCC(ON=C3CCN(c4cc(F)c(S(C)(=O)=O)cc4F)CC3)CC2)cc1F [Example 66-61] | 49 nM

Same assay, conditions: the 39th table, compounds 67-1 to 67-3; read-out: EC50

Row | SMILES | EC50
47 | CCc1ccc(N2CCC(ON=C3CCN(c4ccc(S(C)(=O)=O)cc4F)CC3)CC2)nc1 [Example 67-2] | 558 nM

Same assay, conditions: the 41st table, compounds 73-1, 73-2; unit inferred; read-out: EC50

Row | SMILES | EC50
48 | CS(=O)(=O)c1ccc(N2CCC(=NOC3CCN(C(=O)N4CCCCC4)CC3)CC2)c(F)c1 [Example 73-1, 1-(2-FLUORO-4-METHANESULFONYL-PHENYL)-PIPERIDIN-4-ONE O-[1-(PIPERIDINE-1-CARBONYL)-PIPERIDIN-4-YL]-OXIME] | 425 nM

Same assay, conditions: the 43rd table, compounds 75-1 to 75-38; read-out: EC50

Row | SMILES | EC50
49 | CC(C)OC(=O)N1CCC(ON=C2CCN(c3cc(F)c(CC(=O)N4CCCCC4CN4CCCCC4)cc3F)CC2)CC1 (centres unmarked) [Example 75-32] | 300 nM
50 | CC(C)OC(=O)N1CCC(ON=C2CCN(c3cc(F)c(CC(=O)N4CCC(CN)CC4)cc3F)CC2)CC1 [Example 75-9] | 144 nM
51 | CC(C)OC(=O)N1CCC(ON=C2CCN(c3cc(F)c(CC(=O)N4CCC(N)CC4)cc3F)CC2)CC1 [Example 75-12] | 92 nM

Same assay, conditions: the 44th table, compounds 77-1 to 77-14; read-out: EC50

Row | SMILES | EC50
52 | CCc1cnc(N2CCC(ON=C3CCN(c4cc(F)c(CC(=O)N5CCC(CN(C)C)CC5)cc4F)CC3)CC2)nc1 [Example 77-14] | 6 nM
53 | CCc1cnc(N2CCC(ON=C3CCN(c4cc(F)c(CC(N)=O)cc4F)CC3)CC2)nc1 [Example 77-4] | 32 nM
54 | CCc1cnc(N2CCC(ON=C3CCN(c4cc(F)c(CC(=O)N5CC[C@@H](N)C5)cc4F)CC3)CC2)nc1 [Example 77-11] | 47 nM
55 | CCc1cnc(N2CCC(ON=C3CCN(c4cc(F)c(CC(=O)N5CC[C@H](N)C5)cc4F)CC3)CC2)nc1 [Example 77-12] | 19 nM
56 | CCc1cnc(N2CCC(ON=C3CCN(c4cc(F)c(CC(=O)N5CC[C@H](CN)C5)cc4F)CC3)CC2)nc1 [Example 77-9] | 8 nM
